# Test results published in patent US12023308B2, “Agents for reversing toxic proteinopathies” (THE BROAD INSTITUTE, INC., priority 2019, dated 2024).
# “Also recorded” adds a separate entry of the source.
# Legend:
# Nischarin = target: T1, Nischarin (Homo sapiens, UniProt Q9Y2I1); experiment: Cellular thermal shift assay (CETSA) for Nischarin in P cells; assay type: binding; conditions: 5 μM, 1 hour
# T1 construct: Densitometric analysis of Nischarin abundance after treatment of P cells with BRD-4780 (5 μM, 1 hour) or DMSO; endogenous in cells; host or cells: P cells
# T1 sequence (Q9Y2I1 whole entry): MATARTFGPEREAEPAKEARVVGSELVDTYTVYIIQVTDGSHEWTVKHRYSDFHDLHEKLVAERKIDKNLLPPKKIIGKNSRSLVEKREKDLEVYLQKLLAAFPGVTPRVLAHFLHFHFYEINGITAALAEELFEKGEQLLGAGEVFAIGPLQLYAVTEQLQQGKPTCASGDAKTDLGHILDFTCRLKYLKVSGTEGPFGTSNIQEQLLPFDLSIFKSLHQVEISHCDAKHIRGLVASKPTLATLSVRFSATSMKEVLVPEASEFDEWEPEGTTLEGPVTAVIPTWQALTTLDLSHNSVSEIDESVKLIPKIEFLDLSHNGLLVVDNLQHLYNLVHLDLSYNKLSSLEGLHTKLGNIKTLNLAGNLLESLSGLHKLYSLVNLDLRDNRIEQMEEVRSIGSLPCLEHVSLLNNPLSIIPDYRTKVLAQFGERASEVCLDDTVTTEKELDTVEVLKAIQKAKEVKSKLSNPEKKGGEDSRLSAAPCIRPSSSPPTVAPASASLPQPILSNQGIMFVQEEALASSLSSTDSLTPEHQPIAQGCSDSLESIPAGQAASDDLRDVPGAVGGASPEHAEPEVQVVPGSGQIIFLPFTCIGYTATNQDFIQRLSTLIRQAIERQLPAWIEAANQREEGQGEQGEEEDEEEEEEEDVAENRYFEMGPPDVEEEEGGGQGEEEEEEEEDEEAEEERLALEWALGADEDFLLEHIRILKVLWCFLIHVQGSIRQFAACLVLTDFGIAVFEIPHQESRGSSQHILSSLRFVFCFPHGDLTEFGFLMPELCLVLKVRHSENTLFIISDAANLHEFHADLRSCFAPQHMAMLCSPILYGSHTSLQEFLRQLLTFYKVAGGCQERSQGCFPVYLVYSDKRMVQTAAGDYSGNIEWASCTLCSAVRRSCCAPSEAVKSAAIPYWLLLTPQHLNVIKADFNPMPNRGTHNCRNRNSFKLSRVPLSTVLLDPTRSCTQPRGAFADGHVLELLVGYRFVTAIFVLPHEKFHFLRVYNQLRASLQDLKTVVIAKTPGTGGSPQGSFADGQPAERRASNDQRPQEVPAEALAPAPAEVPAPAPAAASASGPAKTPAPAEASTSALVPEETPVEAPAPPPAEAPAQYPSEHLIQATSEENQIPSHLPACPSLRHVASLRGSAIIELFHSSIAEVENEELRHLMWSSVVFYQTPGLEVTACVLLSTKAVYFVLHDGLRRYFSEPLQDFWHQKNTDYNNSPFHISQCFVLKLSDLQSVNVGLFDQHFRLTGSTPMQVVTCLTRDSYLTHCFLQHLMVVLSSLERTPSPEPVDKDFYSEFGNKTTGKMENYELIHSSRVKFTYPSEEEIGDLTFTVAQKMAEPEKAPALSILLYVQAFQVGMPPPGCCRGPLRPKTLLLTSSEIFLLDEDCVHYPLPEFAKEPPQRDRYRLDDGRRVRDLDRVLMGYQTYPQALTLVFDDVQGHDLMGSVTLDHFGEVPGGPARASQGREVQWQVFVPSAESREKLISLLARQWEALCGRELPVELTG
# Procedure: CETSAs were performed as previously described (Jafari et al., 2014; Reinhard et al., 2015). In brief, P cells were treated in the presence or absence of BRD-4780 for 1 hr, harvested (trypsinized), washed in PBS, resuspended in PBS (containing protease inhibitors) and distributed in 0.2 ml PCR tubes (100 μl; 600,000 cells). Cells were incubated at their designated temperatures for 3 min, then at 25° C. for 3 min and lysed by the addition of 1% NP-40. Immediately thereafter, samples were snap frozen and thawed using thermal cycler set at 25° C. Samples were spun at 20′000×g for 20 min (4° C.) to remove precipitated protein and the supernatant was analyzed by Western blot to examine the TMED9/Nischarin thermal stability.
# MUC1-fs = experiment: BRD-4780 treatment in fs/+ knock-in mice, kidney MUC1-fs by IF and Western blot; assay type: in vivo, mouse
# Procedure: Mice were anesthetized with 3 L/min 02 mixed with 3% isoflurane using the Combi-Vet® system (Rothacher Medical, Bern, Switzerland) for 5 min. Mouse kidneys were removed, sagittally cut to half and rapidly frozen in Tissue-Tek® O.C.T. Compound, Sakura® Finetek (OCT) (25608-930, VWR) using dry ice and 100% ethanol. Five […] sagittal cryosections (CM1950, Leica) were thaw mounted on microscope slides (Fisherbrand™ Superfrost™ Plus, Fisher Scientific) and kept in the cryostat (at −26° C.) for the duration of the sectioning process. Sections were immersion-fixed for 10 min in 4% PFA (15710, Electron Microscopy Sciences), then washed in PBS. The slides were then subjected to antigen retrieval by immersion in 10 mM citric acid buffer (pH=6), for 10 minutes at 95° C. […]
# MUC1-fs and MUC1-wt mean intensities were calculated in kidney sections of mice treated with either vehicle or BRD-4780 (FIGS. 4A, 4B and 12A). As MUC1-fs and MUC1-wt levels varied in different kidney regions, and as sections might contain different portions of the different kidney regions, the levels of these proteins were analyzed only in NCC-positive distal convoluted tubules. […] Each fluorescent channel intensity was measured and a threshold was set for the identification of NCC positive cells. MUC1-fs and MUC1-wt levels were then calculated only in the NCC positive cells. […]
smiles,measurement,setting,value
"CC(C)[C@@H]1[C@H]2CC[C@H](C2)[C@H]1N (racemic) [BRD-4780, 2-endo-amino-3-exo-isopropylbicyclo[2.2.1]heptane]",Nischarin thermal stability / engagement (CETSA),Nischarin,no evidence indicative of direct engagement; also recorded: did not bind Nischarin
same,MUC1-fs in kidney tissue at highest dose,"MUC1-fs; fs/+ mice, 50 mg/kg daily oral gavage, 7 days",nearly indistinguishable from control (+/+) mouse kidneys
same,MUC1-fs protein in mouse kidneys,"MUC1-fs; mouse, in vivo",dose-dependent removal of mutant MUC1-fs protein
